Source: patent US8106071B2, “Compositions for treating hyperproliferative vascular disorders and cancers” (Biobud Co., Ltd., priority 2007, dated 2012)
pIC50: −log10 of the molar value.

Legend:
[1] = system: NCI-H460 (lung cancer cell line); test: Cytotoxicity to tumor cells (WST-1), NCI-H460; assay type: cell-based
Method: (§1) To verify whether the compounds of this invention could be used as anticancer agents, their cytotoxicity against tumor cells were examined. NCI-H460 (lung cancer cell line, ATCC, USA) and MDA-MB 435S (breast cancer cell line, ATCC, USA) were used. The cancer cell lines were plated in 100 μl of DMEM (Dulbelcco's Modified Eagle Medium) containing 10% FBS (fetal bovine serum) in 96-well plates at 5×10^3 cells/well and cultured for 24 hr at 37° C. under 10% CO2 atmosphere. After change of medium with 100 μl of DMEM containing 5% FBS, cells were treated with the indicated concentration of the compounds in DMSO. The final concentration of DMSO in medium was adjusted to 1%. Following 48-hr treatment, medium was changed with a fresh 5% FBS DMEM and 10 μl/well of premix WST-1 (Takara, Japan) was added for analyzing cell proliferation, followed by 2-hr incubation. Using a ELISA microplate reader, the OD (optical density) values at 450 nm were measured. Compared with no-treatment control, the compounds of this invention were evaluated in terms of their cytotoxicity to cancer cell lines.

[2] = system: Human vascular smooth muscle cells (SMC); test: Inhibition of vascular smooth muscle cell proliferation (PDGF-stimulated, WST-1); assay type: cell-based; conditions: 5 ng/ml PDGF, 48-hr treatment
Method: Human vascular smooth muscle cells (SMC, Bio-whittaker, USA) were plated in 100 μl of DMEM (Dulbelcco's Modified Eagle Medium) containing 10% FBS (fetal bovine serum) in 96-well plates at 5×10^3 cells/well and cultured for 24 hr at 37° C. under 10% CO2 atmosphere. Afterwards, cells were starved in 100 μl of DMEM containing 0.2% FBS for 72 hr. Then, cells were incubated in 100 μl of DMEM containing 5% FBS supplemented with 5 ng/ml PDGF (platelet derived growth factor, ProSpec, Israel) and then treated with indicated concentrations of chemicals in DMSO synthesized in Examples. The final concentration of DMSO was adjusted to 1%. After 48-hr treatment, medium was changed with a fresh 5% FBS DMEM and 10 μl/well of premix WST-1 (Takara, Japan) was added for analyzing cell proliferation, followed by 2-hr incubation. Using a ELISA microplate reader, the OD (optical density) values at 450 nm were measured. Compared with no-treatment control, the compounds of this invention were evaluated in terms of their cell proliferation activity.

[3] = system: MDA-MB 435S (breast cancer cell line); test: Cytotoxicity to tumor cells (WST-1), MDA-MB 435S; assay type: cell-based; conditions: 48-hr treatment
Method: as §1

[4] = system: neointima thickening of balloon-injured left common carotid artery; test: Inhibition of restenosis using balloon injury of carotid artery; conditions: Sprague-Dawley rats, intraperitoneal, 2 weeks after balloon injury
Method: To examine restenosis inhibition effects of the present compounds, rat restenosis models were constructed using balloon injury of carotid artery.
Sprague-Dawley male rats with body weights of 350±30 g (12-14 week age, DaehanBiolink, Inc., Korea) were adapted to surrounding environments for one week. For each experiment, 7-10 rats were used. Rats were anesthetized by intraperitoneal administration of a mixture of ketamine (70 mg/kg) and xylazine hydrochloride (33 mg/kg) and their (left common carotid artery, CCA) and branches of internal carotid artery (ICA) and external carotid artery (ECA) were exposed by neck central compartment dissection. The proximal portion of the left common carotid artery and distal portion of the internal carotid artery were temporarily ligated with suture to block bloodstream, the distal portion of the external carotid artery was ligated. The wall of the external carotid artery between both sutures was partially dissected. 2F Fogarty balloon (Edwards Lifesciences) was inserted and the ligation of the left common carotid artery was then unraveled, followed by advancing the balloon along the direction of the ascending aorta. The balloon was inflated and pulled out at the extent that resistance was allowed at the terminal portion of the common carotid artery of the aortic arch, such that the lesion of the left common carotid artery was induced. […]

cancer cell lines = test: Cytotoxicity to tumor cells (WST-1), cancer cell lines collectively; assay type: cell-based; conditions: cancer cell lines (NCI-H460, MDA-MB 435S) not distinguished in the sentence; read-out: IC50 against cancer cell lines
Method: as §1

[5] = Homo sapiens, NCI-H460, 48-hr treatment

Compound | pIC50 ([1]; 48-hr treatment) | pIC50 [2] | pIC50 [3] | pIC50 [1, 5] | pIC50 ([3]; Homo sapiens, MDA-MB-435S) | neointima thickening compared with the non-balloon-injured right common carotid artery ([4]; histology (FIG. 1c vs FIG. 1a)) | reduced neointima thickening compared with the balloon-injured left common carotid artery ([4]; dispersed in polyoxyethylated castor oil, histology (FIG. 1c vs FIG. 1b)) | pIC50 (cancer cell lines)
CC(=O)c1c(Nc2ccc(F)cc2)[nH]c2c(F)cc(F)cc2c1=O [BD007] | 5.80 | 6.54 | 5.96 |  |  |  |  | 
CC(=O)c1c(Nc2ccc(F)c(F)c2F)[nH]c2c(F)cc(F)cc2c1=O [BD004] | 6.07 |  | 6.05 |  |  |  |  | 
O=C(Nc1ccc(Cl)cc1Cl)c1c(Nc2ccccc2)[nH]c2c(Cl)cc(Cl)cc2c1=O [BD030, 6,8-dichloro-4-oxo-2-phenylamino-1,4-dihydro-quinoline-3-carboxylic acid (2,4-dichloro-phenyl)-amide] |  |  |  | 6.00 | 6.52 | slightly increased neointima thickening | about 80% | > 6.00
CC(=O)c1c(Nc2ccc(C)cc2)[nH]c2c([N+](=O)[O-])cccc2c1=O [BD006] | 5.82 | 6.10 | 5.96 |  |  |  |  | 
CC(=O)c1c(Nc2ccc(F)cc2Cl)[nH]c2c(Cl)ccc(C)c2c1=O [BD005] | 6.22 | 6.55 | 4.60 |  |  |  |  | 
CCC(=O)c1c(Nc2ccc(Cl)cc2F)[nH]c2c(Cl)ccc([N+](=O)[O-])c2c1=O [BD032] | 5.48 | 6.85 | 5.46 |  |  |  |  | 
CC(=O)c1c(Nc2cccc(Cl)c2)[nH]c2c(C)cccc2c1=O [BD008] | 5.14 | 5.79 | 5.19 |  |  |  |  | 
CC(=O)c1c(Nc2ccc(F)c(F)c2F)[nH]c2c(Cl)ccc(C)c2c1=O [BD003] | 6.40 |  | 6.22 |  |  |  |  | 
CC(=O)c1c(Nc2ccc(Br)cc2)[nH]c2cc(Br)cc(Br)c2c1=O [BD001] | 5.82 | 6.68 | 5.74 |  |  |  |  | 
O=C(Nc1ccc(Cl)cc1Cl)c1c(Nc2ccc(Cl)cc2Cl)[nH]c2c(Cl)cc(Cl)cc2c1=O [BD031, 6,8-dichloro-2-(2,4-dichloro-phenylamino)-4-oxo-1,4-dihydro-quinoline-3-carboxylic acid (2,4-dichloro-phenyl)-amide] |  |  |  | 6.68 | > 6.80 |  |  | > 6.00
CC(=O)c1c(Nc2ccc(Cl)cc2Cl)[nH]c2c(Cl)ccc([N+](=O)[O-])c2c1=O [BD010] | 4.60 | 5.19 | 4.92 |  |  |  |  | 
CCC(=O)c1c(Nc2cccc(Cl)c2Cl)[nH]c2c(Cl)ccc([N+](=O)[O-])c2c1=O [BD033] | 5.49 | 6.86 | 5.40 |  |  |  |  | 
CCC(=O)c1c(Nc2ccc(F)c(F)c2)[nH]c2c(Cl)ccc([N+](=O)[O-])c2c1=O [BD034] | 5.41 | 6.90 | 5.80 |  |  |  |  | 
CC(=O)c1c(Nc2ccc(Br)cc2Cl)[nH]c2c([N+](=O)[O-])cc(Cl)cc2c1=O [BD002] | 6.40 |  | 6.52 |  |  |  |  | 
CC(=O)c1c(Nc2cccc(F)c2)[nH]c2c(Cl)ccc(F)c2c1=O [BD009] | 5.59 | 6.20 | 5.28 |  |  |  |  | 
